Data: patent US12439919B2, “Active compound combinations” (priority 2019, dated 2025)

Tests used:
field peas = experiment: Field trials in field peas Western Canada 2018, yield (Example I); format: in vivo
Experimental: Field trials in field peas were conducted in Western Canada in spring/summer 2018.
(§1) Fertilization and herbicide applications were carried out according to the local agricultural practice.
(§2) Fluopyram was added to Delaro in a final concentration of 50, 75 and 90 g/ha.
The following products as shown in Table 20 were sprayed using a Backpack hand boom sprayer with flat fan spray nozzles applying 93.5 L/ha spray solution at crop BBCH growth stage 63.

Venturia inaequalis = experiment: In vivo preventive test on Venturia test (apples) (Example G2); settings: 10 days after inoculation
Description: (§3) A synergistic effect of fungicides is always present when the fungicidal activity of the active compound combinations exceeds the total of the activities of the active compounds when applied individually. The expected activity for a given combination of two active compounds can be calculated as follows (cf. Colby, S. R., “Calculating Synergistic and Antagonistic Responses of Herbicide Combinations,” Weeds 1967, 15, 20-22):
(§4) If • X is the efficacy when active compound A is applied at an application rate of m ppm (or g/ha), • Y is the efficacy when active compound B is applied at an application rate of n ppm (or g/ha), • Z is the efficacy when active compound […] ppm (or g/ha), • E1 is the efficacy when the active compounds A and B are applied at application rates of m and n ppm (or g/ha), respectively, and • E2 is the efficacy when the active compounds A, B and C are applied at application rates of m, n and r ppm (or g/ha), respectively, and then
(§5) The degree of efficacy, expressed in % is denoted. 0% means an efficacy which corresponds to that of the control while an efficacy of 100% means that no disease is observed.
(§6) If the actual fungicidal activity exceeds the calculated value, then the activity of the combination is superadditive, i.e., a synergistic effect exists. In this case, the efficacy which was actually observed must be greater than the value for the expected efficacy (E) calculated from the abovementioned formula.
(§7) Solvent: 24.5 parts by weight of acetone • 24.5 parts by weight of dimethyl sulfoxide
(§8) Emulsifier: 1 part by weight of alkylaryl polyglycol ether
(§9) To produce a suitable preparation of active compound, 1 part by weight of active compound is mixed with the stated amounts of solvent and emulsifier, and the concentrate is diluted with water to the desired concentration.
(§10) To test for preventive activity, young plants are sprayed with the preparation of active compound at the stated rate of application. After the spray coating has dried on, the plants are inoculated with an aqueous conidia suspension of the causal agent of apple scab (Venturia inaequalis) and then remain for 1 day in an incubation cabinet at approximately 20° C. and a relative atmospheric humidity of 100%.
The plants are then placed in a greenhouse at approximately 21° C. and a relative atmospheric humidity of approximately 90%.
The test is evaluated 10 days after the inoculation. 0% means an efficacy which corresponds to that of the untreated control, while an efficacy of 100% means that no disease is observed.

Alternaria solani = experiment: In vivo preventive test on Alternaria test (tomatoes) (Example G1); settings: 3 days after inoculation
Description: as §3, §4, §5, §6, §7, §8, §9
as §10, with “spore” for “conidia”, “Alternaria solani. The plants are” for “the causal agent of apple scab (Venturia inaequalis) and”, “placed” for “remain for 1 day”
The test is evaluated 3 days after the inoculation. 0% means an efficacy which corresponds to that of the untreated control while an efficacy of 100% means that no disease is observed.

lentils = experiment: Field trials in lentils Western Canada 2018, yield (Example H); format: in vivo
Experimental: Field trials in lentils were conducted in Western Canada in spring/summer 2018.
as §1, §2
The following products as shown in Table 18 were sprayed using a Backpack hand boom sprayer with air induction flat fan spray nozzles applying 93.5 L/Ha spray solution at crop BBCH—growth stage 62-63.

## O=C(NCCc1ncc(C(F)(F)F)cc1Cl)c1ccccc1C(F)(F)F [Fluopyram, N-[2-[3-chloro-5-(trifluoromethyl)-2-pyridinyl]ethyl]-2-(trifluoromethyl)benzamide]
Field peas; BBCH 63, Fluopyram 50 g/ha
  Yield [% of Priaxor treatment-Priaxor is 100%]: 98.9 % of Priaxor treatment
Field peas; BBCH 63, Fluopyram 75 g/ha
  Yield [% of Priaxor treatment-Priaxor is 100%]: 99.7 % of Priaxor treatment
Venturia inaequalis; fluopyram 0.75 ppm
  Efficacy %: 0%
Venturia inaequalis; fluopyram 1.5 ppm
  Efficacy %: 0%
Venturia inaequalis; fluopyram 3 ppm
  Efficacy %: 5%
Alternaria solani; fluopyram 0.75 ppm
  Efficacy %: 5%
Alternaria solani; fluopyram 1.5 ppm
  Efficacy %: 8%
Alternaria solani; fluopyram 3 ppm
  Efficacy %: 10%
lentils; BBCH 62-63, Fluopyram 50 g/ha
  Yield [% of Priaxor treatment-Priaxor is 100%]: 93.8 % of Priaxor treatment
lentils; BBCH 62-63, Fluopyram 75 g/ha
  Yield [% of Priaxor treatment-Priaxor is 100%]: 96.3 % of Priaxor treatment

## OC(Cc1ccccc1Cl)(Cn1nc[nH]c1=S)C1(Cl)CC1 (stereo not shown) [Prothioconazole, 2-[2-(1-chlorocyclopropyl)-3-(2-chlorophenyl)-2-hydroxypropyl]-1,2-dihydro-3H-1,2,4-triazole-3-thione]
Venturia inaequalis; prothioconazole 1.05 ppm
  Efficacy %: 0%
Venturia inaequalis; prothioconazole 2.1 ppm
  Efficacy %: 17%
Venturia inaequalis; prothioconazole 4.2 ppm
  Efficacy %: 41%
Alternaria solani; prothioconazole 1.05 ppm
  Efficacy %: 0%
Alternaria solani; prothioconazole 2.1 ppm
  Efficacy %: 0%
Alternaria solani; prothioconazole 4.2 ppm
  Efficacy %: 10%

## CO/N=C(/C(=O)OC)c1ccccc1CO/N=C(\C)c1cccc(C(F)(F)F)c1 [Trifloxystrobin, methylalpha-(methoxyimino)-2-[[[[1-[3-(trifluoromethyl)phenyl]ethylidene]amino]oxy]methyl]-benzeneacetate]
Venturia inaequalis; trifloxystrobin 0.9 ppm
  Efficacy %: 40%
Venturia inaequalis; trifloxystrobin 1.8 ppm
  Efficacy %: 65%
Venturia inaequalis; trifloxystrobin 3.6 ppm
  Efficacy %: 89%
Alternaria solani; trifloxystrobin 0.9 ppm
  Efficacy %: 23%
Alternaria solani; trifloxystrobin 1.8 ppm
  Efficacy %: 31%
Alternaria solani; trifloxystrobin 3.6 ppm
  Efficacy %: 41%
